From US6566403B1 (priority 1997, dated 2003)
Read-outs that look alike come from different tables or passages of the source.

What was measured:
Plasmopara viticola [1] = assay: Grape Downy Mildew-Curative (GDC); assay type: in vivo; settings: compound applied two days after inoculation
Description: (§1) Cultures of Plasmopara viticola were maintained on grape seedlings derived from tissue culture. Leaves with sporulating mildew were rinsed in water to obtain the desired concentration of spores. A DeVilbiss atomizer was used to apply a suspension of spores to fungicide-treated lower leaves of the grape plants. The plants were kept in a humidity cabinet at 100% relative humidity for 24 hours and then placed in a controlled temperature chamber at 25° C. for 7-8 days before scoring. Disease evaluations were recorded as percent disease control.
The curative properties of the test compounds were evaluated using the same procedure as that set forth above in the section entitled “GRAPE DOWNY MILDEW”, except that the test compound was applied to the plants two days after inoculation with the pathogen.

Phytophthora infestans [2] = assay type: in vivo; settings: tomato, compound applied two days after inoculation
Phytophthora infestans [3] = assay type: in vivo; settings: tomato seedlings, treated before inoculation, 6 days after inoculation
Botrytis cinerea [4] = assay: Gray Mold on Tomato-Curative (BOC); assay type: in vivo; settings: tomato plants, compound applied 2 days after inoculation
Description: Botrytis cinerea cultures were maintained on potato dextrose agar. A dextrose solution was used to wash spores from sporulating cultures. A DeVilbiss atomizer was used to apply the resulting spore suspension to tomato plants. The plants were placed in a humidity cabinet at 100% relative humidity, and the test compound was applied to the plants after 2 days. The plants were returned to the humidity cabinet for a further 3-5 days before scoring. Disease evaluations were recorded as percent disease control.

Phytophthora capsici = assay: Fungitoxicity assay against Phytophthora capsici (mycelial dry weight, liquid broth); assay type: cell-based; settings: EC50 of racemic mixture divided by EC50 of the enantiomer; growth 96 h
Description: (§2) A series of dilutions of each test compound was prepared in dimethyl sulfoxide, and 0.1 ml of each dilution was added to 19.9 ml of a liquid asparagine-sucrose broth (Erwin, D. C. and Katznelson, K., 1971, Can. J. Microbiol. 7, 15) in 9 cm diameter petri dishes to give the desired concentrations of test compound in the medium. Each plate was inoculated with a mycelial plug, 7 mm in diameter, taken from the growing edge of a culture of Pythium ultimum grown on potato dextrose agar. Two replicate plates were used for each treatment. The increase in mycelial dry weight was determined after growth for 48 hours at 25° C. with shaking on a gyrotary shaker at 60 rpm. Pythium EC50 values were calculated from dose response curves. As used herein, the terminology “EC50” means the concentration of test compound required to inhibit growth by 50% as compared to a control lacking the test compound.
The procedure described above for Pythium ultimum was used except that the mycelial plugs used for inoculation were taken from the growing edge of cultures of Phytophthora capsici grown on V-8 juice agar, pH 7.0, containing 200 ml V-8 juice, 4 g CaCO3, and 20 g agar per liter, and the increase in mycelial dry weight was determined after growth for 96 h.
(§3) In order to compare the activity of individual isomers with that of the corresponding racemic mixture, the relative effectiveness of each compound was calculated. As used herein, relative effectiveness means the EC50 value for a racemic mixture of the particular compound divided by the EC50 value for one enantiomer. The relative effectiveness of the racemic mixture itself is 1.0.

Pythium ultimum = assay: Fungitoxicity assay against Pythium ultimum (mycelial dry weight, liquid broth); assay type: cell-based; settings: for Relative Effectiveness against Pythium ultimum: EC50 of racemic mixture divided by EC50 of the enantiomer, growth 48 hours at 25° C.
Description: as §2, §3

Botrytis cinerea [5] = assay: Fungitoxicity assay against Botrytis cinerea (colony diameter on agar); assay type: cell-based; settings: EC50 of racemic mixture divided by EC50 of the enantiomer; 48 hours at 25° C.
Description: A series of dilutions of each test compound was prepared in dimethyl sulfoxide and 125 microliters […] of each dilution was added to 25 ml of molten potato dextrose agar to give the desired concentrations of test compound. The mixtures were poured immediately into 9 cm diameter petri dishes. Each plate was inoculated with a 7 mm diameter mycelial plug taken from the growing edge of a 5 day old culture of B. cinerea grown on potato dextrose agar.
as §3

Plasmopara viticola [6] = assay: Grape Downy Mildew (GDM); assay type: in vivo; settings: grape plants, treated before inoculation, scored after 7-8 days
Description: as §1

CCC(C)(NC(=O)c1cc(Cl)c(C)c(Cl)c1)C(=O)CCl (racemic) [Compound 1, racemate]
GDC percent disease control (Plasmopara viticola [1]; 19 ppm): 50%
GDC percent disease control (Plasmopara viticola [1]; 75 ppm): 50%
GDC percent disease control (Plasmopara viticola [1]; 300 ppm): 90%
TLC percent disease control (Phytophthora infestans [2]; 19 ppm): 80%
TLC percent disease control (Phytophthora infestans [2]; 75 ppm): 90%
TLC percent disease control (Phytophthora infestans [2]; 300 ppm): 95%
TLB percent disease control (Phytophthora infestans [3]; 19 ppm): 85%
TLB percent disease control (Phytophthora infestans [3]; 75 ppm): 100%
TLB percent disease control (Phytophthora infestans [3]; 300 ppm): 95%
BOC percent disease control (Botrytis cinerea [4]; 19 ppm): 50%
BOC percent disease control (Botrytis cinerea [4]; 75 ppm): 75%
BOC percent disease control (Botrytis cinerea [4]; 300 ppm): 90%
Relative Effectiveness against Phytophthora capsici (Phytophthora capsici): 1.00
Relative Effectiveness against Pythium ultimum (Pythium ultimum): 1.00
Relative Effectiveness against Botrytis cinerea (Botrytis cinerea [5]): 1.00
GDM percent disease control (Plasmopara viticola [6]; 19 ppm): 99%
GDM percent disease control (Plasmopara viticola [6]; 75 ppm): 100%
GDM percent disease control (Plasmopara viticola [6]; 300 ppm): 100%

CCC(C)(NC(=O)c1cc(Cl)cc(Cl)c1)C(=O)CCl (racemic) [Compound 2, racemate]
Relative Effectiveness against Pythium ultimum (Pythium ultimum): 1.00
Relative Effectiveness against Botrytis cinerea (Botrytis cinerea [5]): 1.00

CC[C@@](C)(NC(=O)c1cc(Cl)c(C)c(Cl)c1)C(=O)CCl [Compound 1, R enantiomer, (R)-N-(3-chloro-1-ethyl-1-methyl-2-oxopropyl)-3,5-dichloro-4-methylbenzamide]
GDC percent disease control (Plasmopara viticola [1]; 19 ppm): 0%
GDC percent disease control (Plasmopara viticola [1]; 75 ppm): 0%
GDC percent disease control (Plasmopara viticola [1]; 300 ppm): 0%
TLC percent disease control (Phytophthora infestans [2]; 19 ppm): 0%
TLC percent disease control (Phytophthora infestans [2]; 75 ppm): 0%
TLC percent disease control (Phytophthora infestans [2]; 300 ppm): 0%
TLB percent disease control (Phytophthora infestans [3]; 19 ppm): 25%
TLB percent disease control (Phytophthora infestans [3]; 75 ppm): 50%
TLB percent disease control (Phytophthora infestans [3]; 300 ppm): 75%
BOC percent disease control (Botrytis cinerea [4]; 19 ppm): 0%
BOC percent disease control (Botrytis cinerea [4]; 75 ppm): 0%
BOC percent disease control (Botrytis cinerea [4]; 300 ppm): 0%
Relative Effectiveness against Phytophthora capsici (Phytophthora capsici): 0.0072
Relative Effectiveness against Pythium ultimum (Pythium ultimum): 0.037
Relative Effectiveness against Botrytis cinerea (Botrytis cinerea [5]): <0.076
GDM percent disease control (Plasmopara viticola [6]; 19 ppm): 0%
GDM percent disease control (Plasmopara viticola [6]; 75 ppm): 0%
GDM percent disease control (Plasmopara viticola [6]; 300 ppm): 0%

CC[C@](C)(NC(=O)c1cc(Cl)c(C)c(Cl)c1)C(=O)CCl [Compound 1, S enantiomer, (S)-N-(3-chloro-1-ethyl-1-methyl-2-oxopropyl)-3,5-dichloro-4-methylbenzamide]
GDC percent disease control (Plasmopara viticola [1]; 19 ppm): 75%
GDC percent disease control (Plasmopara viticola [1]; 75 ppm): 90%
GDC percent disease control (Plasmopara viticola [1]; 300 ppm): 99%
TLC percent disease control (Phytophthora infestans [2]; 19 ppm): 90%
TLC percent disease control (Phytophthora infestans [2]; 75 ppm): 99%
TLC percent disease control (Phytophthora infestans [2]; 300 ppm): 95%
TLB percent disease control (Phytophthora infestans [3]; 19 ppm): 90%
TLB percent disease control (Phytophthora infestans [3]; 75 ppm): 100%
TLB percent disease control (Phytophthora infestans [3]; 300 ppm): 100%
BOC percent disease control (Botrytis cinerea [4]; 19 ppm): 75%
BOC percent disease control (Botrytis cinerea [4]; 75 ppm): 90%
BOC percent disease control (Botrytis cinerea [4]; 300 ppm): 95%
Relative Effectiveness against Phytophthora capsici (Phytophthora capsici): 2.13
Relative Effectiveness against Pythium ultimum (Pythium ultimum): 2.18
Relative Effectiveness against Botrytis cinerea (Botrytis cinerea [5]): 2.03
GDM percent disease control (Plasmopara viticola [6]; 19 ppm): 99%
GDM percent disease control (Plasmopara viticola [6]; 75 ppm): 100%
GDM percent disease control (Plasmopara viticola [6]; 300 ppm): 100%

CCC(C)(NC(=O)c1cc(Cl)c(C)c(Cl)c1)C(=O)CCl (stereo not drawn) [Compound 1]
Relative Effectiveness (expected) against Pythium ultimum (Pythium ultimum; 50 % S in the Mixture of racemate and S enantiomer): 1.000
Relative Effectiveness (expected) against Pythium ultimum (Pythium ultimum; 60 % S in the Mixture of racemate and S enantiomer): 1.236
Relative Effectiveness (expected) against Pythium ultimum (Pythium ultimum; 70 % S in the Mixture of racemate and S enantiomer): 1.472
Relative Effectiveness (expected) against Pythium ultimum (Pythium ultimum; 80 % S in the Mixture of racemate and S enantiomer): 1.708
Relative Effectiveness (expected) against Pythium ultimum (Pythium ultimum; 90 % S in the Mixture of racemate and S enantiomer): 1.944
Relative Effectiveness (expected) against Pythium ultimum (Pythium ultimum; 100 % S in the Mixture of racemate and S enantiomer): 2.180

CC[C@@](C)(NC(=O)c1cc(Cl)cc(Cl)c1)C(=O)CCl [Compound 2, R enantiomer]
Relative Effectiveness against Pythium ultimum (Pythium ultimum): 0.055
Relative Effectiveness against Botrytis cinerea (Botrytis cinerea [5]): 0.17

CC[C@](C)(NC(=O)c1cc(Cl)cc(Cl)c1)C(=O)CCl [Compound 2, S enantiomer]
Relative Effectiveness against Pythium ultimum (Pythium ultimum): 2.68
Relative Effectiveness against Botrytis cinerea (Botrytis cinerea [5]): 1.85
